In ChEMBL document CHEMBL4308841, “Synthesis, in vitro antiproliferative activity, and kinase inhibitory effects of pyrazole-containing diarylureas and diarylamides” (Eur J Med Chem, 2018):

Tests used:
MDA-MB-435 [1] = experiment: Growth inhibition of human MDA-MB-435 cells incubated for 48 hrs by sulforhodamine B assay; type: functional, cell-based; conditions: MDA-MB-435, 48 h
SK-MEL-28 = experiment: Growth inhibition of human SK-MEL-28 cells assessed as cell growth at 1 uM incubated for 48 hrs by sulforhodamine B assay relative to control; type: functional; conditions: SK-MEL-28, 48 h, read-out: Activity
IGROV-1 [2] = experiment: Growth inhibition of human IGROV1 cells incubated for 48 hrs by sulforhodamine B assay; type: functional, cell-based; conditions: IGROV-1, 48 h
NCI-H226 = experiment: Growth inhibition of human NCI-H226 cells assessed as cell growth at 0.01 uM incubated for 48 hrs by sulforhodamine B assay relative to control; type: functional; conditions: NCI-H226, 48 h, read-out: Activity
SK-MEL-2 = experiment: Growth inhibition of human SK-MEL-2 cells assessed as cell growth at 10 uM incubated for 48 hrs by sulforhodamine B assay relative to control; type: functional; conditions: SK-MEL-2, 48 h, read-out: Activity
T47D = experiment: Growth inhibition of human T47D cells assessed as cell growth at 100 uM incubated for 48 hrs by sulforhodamine B assay relative to control; type: functional; conditions: read-out: Activity
U-251 = experiment: Growth inhibition of human U251 cells assessed as cell growth at 0.1 uM incubated for 48 hrs by sulforhodamine B assay relative to control; type: functional; conditions: U-251, 48 h, read-out: Activity
A498 = experiment: Growth inhibition of human A498 cells assessed as cell growth at 0.01 uM incubated for 48 hrs by sulforhodamine B assay relative to control; type: functional; conditions: A498, 48 h, read-out: Activity
OVCAR-3 [3] = experiment: Growth inhibition of human OVCAR3 cells incubated for 48 hrs by sulforhodamine B assay; type: functional, cell-based; conditions: OVCAR-3, 48 h
OVCAR-3 [4] = experiment: Growth inhibition of human OVCAR3 cells assessed as cell growth at 1 uM incubated for 48 hrs by sulforhodamine B assay relative to control; type: functional; conditions: OVCAR-3, 48 h, read-out: Activity
HOP-62 = experiment: Growth inhibition of human HOP62 cells assessed as cell growth at 100 uM incubated for 48 hrs by sulforhodamine B assay relative to control; type: functional; conditions: HOP-62, 48 h, read-out: Activity
SK-OV-3 = experiment: Growth inhibition of human SKOV3 cells incubated for 48 hrs by sulforhodamine B assay; type: functional, cell-based; conditions: SK-OV-3, 48 h
IGROV-1 [5] = experiment: Growth inhibition of human IGROV1 cells assessed as cell growth at 1 uM incubated for 48 hrs by sulforhodamine B assay relative to control; type: functional; conditions: IGROV-1, 48 h, read-out: Activity
UACC-257 = experiment: Growth inhibition of human UACC257 cells assessed as cell growth at 100 uM incubated for 48 hrs by sulforhodamine B assay relative to control; type: functional; conditions: UACC-257, 48 h, read-out: Activity
Hs-578T = experiment: Growth inhibition of human Hs578T cells assessed as cell growth at 0.01 uM incubated for 48 hrs by sulforhodamine B assay relative to control; type: functional; conditions: read-out: Activity
MDA-MB-468 = experiment: Growth inhibition of human MDA-MB-468 cells assessed as cell growth at 0.01 uM incubated for 48 hrs by sulforhodamine B assay relative to control; type: functional; conditions: MDA-MB-468, 48 h, read-out: Activity
HL-60(TB) = experiment: Growth inhibition of human HL-60(TB) cells assessed as cell growth at 0.01 uM incubated for 48 hrs by sulforhodamine B assay relative to control; type: functional; conditions: HL-60, 48 h, read-out: Activity
CCRF-CEM = experiment: Growth inhibition of human CCRF-CEM cells assessed as cell growth at 100 uM incubated for 48 hrs by sulforhodamine B assay relative to control; type: functional; conditions: read-out: Activity
KM12 = experiment: Growth inhibition of human KM12 cells assessed as cell growth at 0.01 uM incubated for 48 hrs by sulforhodamine B assay relative to control; type: functional; conditions: KM12, 48 h, read-out: Activity
BT-549 = experiment: Growth inhibition of human BT549 cells assessed as cell growth at 0.1 uM incubated for 48 hrs by sulforhodamine B assay relative to control; type: functional; conditions: BT-549, 48 h, read-out: Activity
HCT-116 = experiment: Growth inhibition of human HCT116 cells assessed as cell growth at 1 uM incubated for 48 hrs by sulforhodamine B assay relative to control; type: functional; conditions: HCT-116, 48 h, read-out: Activity
786-0 = experiment: Growth inhibition of human 786-0 cells assessed as cell growth at 100 uM incubated for 48 hrs by sulforhodamine B assay relative to control; type: functional; conditions: 786-0, 48 h, read-out: Activity
RXF 393 = experiment: Growth inhibition of human RXF393 cells incubated for 48 hrs by sulforhodamine B assay; type: functional, cell-based; conditions: RXF 393, 48 h
HT-29 [6] = experiment: Growth inhibition of human HT-29 cells incubated for 48 hrs by sulforhodamine B assay; type: functional, cell-based; conditions: HT-29, 48 h
HCT-15 = experiment: Growth inhibition of human HCT15 cells assessed as cell growth at 0.01 uM incubated for 48 hrs by sulforhodamine B assay relative to control; type: functional; conditions: HCT-15, 48 h, read-out: Activity
IGROV-1 [7] = experiment: Growth inhibition of human IGROV1 cells assessed as cell growth at 0.01 uM incubated for 48 hrs by sulforhodamine B assay relative to control; type: functional; conditions: IGROV-1, 48 h, read-out: Activity
HT-29 [8] = experiment: Growth inhibition of human HT-29 cells assessed as cell growth at 100 uM incubated for 48 hrs by sulforhodamine B assay relative to control; type: functional; conditions: HT-29, 48 h, read-out: Activity
MDA-MB-435 [9] = experiment: Growth inhibition of human MDA-MB-435 cells assessed as cell growth at 0.1 uM incubated for 48 hrs by sulforhodamine B assay relative to control; type: functional; conditions: MDA-MB-435, 48 h, read-out: Activity
DU-145 = experiment: Growth inhibition of human DU145 cells assessed as cell growth at 0.01 uM incubated for 48 hrs by sulforhodamine B assay relative to control; type: functional; conditions: DU-145, 48 h, read-out: Activity
[10] = read-out: LC50 (the source's name)
[11] = read-out: pLC50 (the source's name) (converted)

COc1cc(Cl)cc(-c2nn(-c3cccc(NC(=O)Nc4cccc(C(F)(F)F)c4)c3)cc2-c2ccncc2)c1
GI50 (MDA-MB-435 [1]; read-out: GI50): 1.74 µM
LC50 (MDA-MB-435 [1]; read-out: LC50): 83.7 µM
TGI (MDA-MB-435 [1]; read-out: TGI): 35.2 µM
GI50 (MDA-MB-435 [1]; read-out: pGI50 (converted)): 1.74 µM
LC50 (MDA-MB-435 [1]; read-out: pLC50 (converted)): 8.32 µM
TGI (MDA-MB-435 [1]; read-out: pTGI (converted)): 3.8 µM
growth at 1 µM (SK-MEL-28): 82%
GI50 (IGROV-1 [2]; read-out: GI50): 2.56 µM
CC50 (IGROV-1 [2]; [10]): > 100 µM
TGI (IGROV-1 [2]; read-out: TGI): 22.7 µM
GI50 (IGROV-1 [2]; read-out: pGI50 (converted)): 2.88 µM
CC50 (IGROV-1 [2]; [11]): > 100 µM
TGI (IGROV-1 [2]; read-out: pTGI (converted)): 22.9 µM
growth at 0.01 µM (NCI-H226): 95%
growth at 10 µM (SK-MEL-2): -36.7%
growth at 100 µM (T47D): -25%
growth at 0.1 µM (U-251): 93%
growth at 0.01 µM (A498): 95%
IC50 (OVCAR-3 [3]): 0.59 µM
GI50 (OVCAR-3 [3]; read-out: GI50): 0.502 µM
CC50 (OVCAR-3 [3]; [10]): > 100 µM
TGI (OVCAR-3 [3]; read-out: TGI): 45.7 µM
GI50 (OVCAR-3 [3]; read-out: pGI50 (converted)): 0.589 µM
CC50 (OVCAR-3 [3]; [11]): > 100 µM
TGI (OVCAR-3 [3]; read-out: pTGI (converted)): 4.57 µM
growth at 1 µM (OVCAR-3 [4]): 38%
growth at 100 µM (HOP-62): -41%
GI50 (SK-OV-3; read-out: GI50): 3.61 µM
CC50 (SK-OV-3; [10]): > 100 µM
TGI (SK-OV-3; read-out: TGI): 55.4 µM
GI50 (SK-OV-3; read-out: pGI50 (converted)): 3.63 µM
CC50 (SK-OV-3; [11]): > 100 µM
TGI (SK-OV-3; read-out: pTGI (converted)): 58.9 µM
growth at 1 µM (IGROV-1 [5]): 85%
growth at 100 µM (UACC-257): -72%
growth at 0.01 µM (Hs-578T): 99%
growth at 0.01 µM (MDA-MB-468): 94%
growth at 0.01 µM (HL-60(TB)): 96%
growth at 100 µM (CCRF-CEM): -18%
growth at 0.01 µM (KM12): 97%
growth at 0.1 µM (BT-549): 114%
growth at 1 µM (HCT-116): 43%
growth at 100 µM (786-0): -57%
LC50 (RXF 393): 36.3 µM
GI50 (RXF 393; read-out: GI50): 1.4 µM
TGI (RXF 393; read-out: TGI): 43.5 µM
GI50 (RXF 393; read-out: pGI50 (converted)): 1.41 µM
TGI (RXF 393; read-out: pTGI (converted)): 4.37 µM
GI50 (HT-29 [6]; read-out: GI50): 1.51 µM
CC50 (HT-29 [6]; [10]): 25.1 µM
TGI (HT-29 [6]; read-out: TGI): 52.4 µM
GI50 (HT-29 [6]; read-out: pGI50 (converted)): 1.51 µM
CC50 (HT-29 [6]; [11]): 26.3 µM
TGI (HT-29 [6]; read-out: pTGI (converted)): 6.31 µM
growth at 0.01 µM (HCT-15): 92%
growth at 0.01 µM (IGROV-1 [7]): 106%
growth at 100 µM (HT-29 [8]): -97%
growth at 0.1 µM (MDA-MB-435 [9]): 97%
growth at 0.01 µM (DU-145): 101%

COc1cc(Cl)cc(-c2nn(-c3cccc(NC(=O)c4ccc(N5CCOCC5)c(C(F)(F)F)c4)c3)cc2-c2ccncc2)c1
GI50 (MDA-MB-435 [1]; read-out: GI50): 4.38 µM
LC50 (MDA-MB-435 [1]; read-out: LC50): > 100 µM
TGI (MDA-MB-435 [1]; read-out: TGI): > 100 µM
GI50 (MDA-MB-435 [1]; read-out: pGI50 (converted)): 43.7 µM
LC50 (MDA-MB-435 [1]; read-out: pLC50 (converted)): > 100 µM
TGI (MDA-MB-435 [1]; read-out: pTGI (converted)): > 100 µM
growth at 1 µM (SK-MEL-28): 53%
GI50 (IGROV-1 [2]; read-out: GI50): > 100 µM
CC50 (IGROV-1 [2]; [10]): > 100 µM
TGI (IGROV-1 [2]; read-out: TGI): > 100 µM
GI50 (IGROV-1 [2]; read-out: pGI50 (converted)): > 100 µM
CC50 (IGROV-1 [2]; [11]): > 100 µM
TGI (IGROV-1 [2]; read-out: pTGI (converted)): > 100 µM
growth at 0.01 µM (NCI-H226): 94%
growth at 10 µM (SK-MEL-2): 64.9%
growth at 100 µM (T47D): 33%
growth at 0.1 µM (U-251): 95%
growth at 0.01 µM (A498): 59%
IC50 (OVCAR-3 [3]): 53.1 µM
GI50 (OVCAR-3 [3]; read-out: GI50): 5.31 µM
CC50 (OVCAR-3 [3]; [10]): > 100 µM
TGI (OVCAR-3 [3]; read-out: TGI): > 100 µM
GI50 (OVCAR-3 [3]; read-out: pGI50 (converted)): 53.7 µM
CC50 (OVCAR-3 [3]; [11]): > 100 µM
TGI (OVCAR-3 [3]; read-out: pTGI (converted)): > 100 µM
growth at 1 µM (OVCAR-3 [4]): 100%
growth at 100 µM (HOP-62): 45%
GI50 (SK-OV-3; read-out: GI50): > 100 µM
CC50 (SK-OV-3; [10]): > 100 µM
TGI (SK-OV-3; read-out: TGI): > 100 µM
GI50 (SK-OV-3; read-out: pGI50 (converted)): > 100 µM
CC50 (SK-OV-3; [11]): > 100 µM
TGI (SK-OV-3; read-out: pTGI (converted)): > 100 µM
growth at 1 µM (IGROV-1 [5]): 104%
growth at 100 µM (UACC-257): -18%
growth at 0.01 µM (Hs-578T): 92%
growth at 0.01 µM (MDA-MB-468): 94%
growth at 0.01 µM (HL-60(TB)): 94%
growth at 100 µM (CCRF-CEM): 18%
growth at 0.01 µM (KM12): 96%
growth at 0.1 µM (BT-549): 100%
growth at 1 µM (HCT-116): 90%
growth at 100 µM (786-0): -30%
LC50 (RXF 393): > 100 µM
GI50 (RXF 393; read-out: GI50): 0.83 µM
TGI (RXF 393; read-out: TGI): 23.9 µM
GI50 (RXF 393; read-out: pGI50 (converted)): 0.813 µM
TGI (RXF 393; read-out: pTGI (converted)): 24 µM
GI50 (HT-29 [6]; read-out: GI50): 4 µM
CC50 (HT-29 [6]; [10]): > 100 µM
TGI (HT-29 [6]; read-out: TGI): 38 µM
GI50 (HT-29 [6]; read-out: pGI50 (converted)): 4.07 µM
CC50 (HT-29 [6]; [11]): > 100 µM
TGI (HT-29 [6]; read-out: pTGI (converted)): 38 µM
growth at 0.01 µM (HCT-15): 94%
growth at 0.01 µM (IGROV-1 [7]): 103%
growth at 100 µM (HT-29 [8]): -17%
growth at 0.1 µM (MDA-MB-435 [9]): 98%
growth at 0.01 µM (DU-145): 108%
